Values quoted from earlier work in publication PMC8604667 (International Journal of Pharmaceutics: X, 2021).

What was measured:
[1] = ref Venditto and Simanek, 2010
P-glycoprotein = details: ref Takemoto et al., 2006; Negi et al., 2013

Compound: CC[C@@]1(O)C(=O)OCc2c1cc1n(c2=O)Cc2cc3ccccc3nc2-1 [camptothecin, Camptothecin]
- pH at which lactone and carboxylate forms co-exist at 50% [1]: 6.65
- P-glycoprotein substrate (P-glycoprotein): P-glycoprotein substrate
